# Assay results as given in patent US20250082618A1, “DOSING REGIMENS USING TOPICAL ROFLUMILAST COMPOSITIONS” (ARCUTIS BIOTHERAPEUTICS, INC., priority 2023, published 2025).
# Tested on: patients with atopic dermatitis
# Assay: Phase III open-label trial: vIGA-AD, maintenance (BIW) dosing and disease control
# Assay type: in vivo, human
# Protocol: The vIGA-AD is a static evaluation of qualitative overall AD severity. This global assessment scale is an ordinal scale with five severity grades (reported only in integers of 0 to 4). Each grade is defined by a distinct and clinically relevant morphologic description that minimizes inter-observer variability (see Table 1). vIGA-AD is evaluated for the entire body except the scalp, palms, and soles.
# A Phase III, multicenter, open-label clinical trial was carried out to investigate the use of a topical roflumilast emollient cream to treat patients with atopic dermatitis. The primary objective of this study was to assess long-term safety in a multicenter, open-label, single-arm study in subjects with atopic dermatitis treated with either […] (for subjects ≥6 years of age) or 0.05% (for subjects between 2 to 5 years of age) topical roflumilast cream.
# The primary endpoints of the study were adverse events or serious adverse events. The secondary endpoints of this study were validated investigator Global assessment-atopic dermatitis (“vIGA-AD”) value 0 or 1 at each assessment, vIGA-AD success (defined as vIGA-AD value of 0 or 1 plus a 2-grade improvement from baseline), Worst Itch-Numeric Rating Score (“WI-NRS”) score over time, and Eczema Area and Severity Index (“EASI”) score over time.
# All patients enrolled in this phase III study applied either a 0.15% or 0.05% roflumilast topical cream once daily until Week 4 of the study. Patients between 2-5 years of age received 0.05% roflumilast topical cream and patients 6 years of age or older received 0.15% roflumilast. Subjects who reached 6 years of age during the study were switched from 0.05% to 0.15% roflumilast topical cream at the first scheduled clinical visit following their sixth birthday. Study medication was applied for up to 24 or 52 weeks to all affected areas, except on the scalp. Beginning at the Week 4 visit, any subject who achieved vIGA-AD of 0 as confirmed by the Investigator at a scheduled or unscheduled clinical visit, was switched from daily to twice weekly administration of roflumilast topical cream. Instructions for the twice weekly administration were to apply the roflumilast topical cream on two nonconsecutive days per week (e.g. Monday and Thursday) to areas commonly and/or most recently affected by atopic dermatitis and any areas where atopic dermatitis was developing.
# Clinical visits and phone contact were scheduled at Weeks 4, 12, 18, 24, 30, 36, 44, and 52 of the study. At clinical visits, subjects receiving twice weekly treatment (“maintenance treatment”) were permitted to continue maintenance treatment if vIGA-AD was either 0 or 1. Subjects evaluated at clinical visits with vIGA-AD 2 or greater were instructed to resume daily administration of roflumilast topical cream. Patients were also permitted to resume daily dosing, despite a vIGA-AD of 1, if signs or symptoms of atopic dermatitis were not adequately controlled with maintenance therapy.
# Median duration of the first maintenance dosing period was ≥124 days for the 24-week cohort and ≥270 days for the 52-week cohort. 65% percent of these patients were on a maintenance dosing regimen through the final visit. Disease control was defined as a vIGA-AD score of 0, a switch to a maintenance dosing regimen, and a maintenance of a vIGA-AD score of 0 or 1.
smiles,measurement,setting,value
"O=C(Nc1c(Cl)cncc1Cl)c1ccc(OC(F)F)c(OCC2CC2)c1 [roflumilast, N-(3,5-dichloropyrid-4-yl)-3-cyclopropylmethoxy-4-difluoromethoxybenzamide]",Median duration of the first maintenance (BIW) dosing period,24-week cohort,≥ 124 days
same,Median duration of the first maintenance (BIW) dosing period,52-week cohort,≥ 270 days
same,number of patients who achieved vIGA-AD=0 and switched to maintenance (BIW) dosing,by Week 24 and Week 52,132
same,patients who achieved vIGA-AD=0 and switched to maintenance (BIW) dosing,"by Week 24 and Week 52, once daily, twice weekly after vIGA-AD 0",20.1%
same,patients on maintenance (BIW) dosing regimen through the final visit,of the 132 patients who switched,65%
